Experimental data from the supplement of paper PMC10307832.

Tests used:
Assay in all cases: relative viability (nuclei count vs DMSO), 5 days (fraction); higher = more cells survive
Obatoclax + Vorinostat = compound: COC1=CC(c2cc3ccccc3[nH]2)=N/C1=C\c1[nH]c(C)cc1C [Obatoclax] + O=C(CCCCCCC(=O)Nc1ccccc1)NO [Vorinostat] (partner 1 µM)
In short: (§1)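 Dosing by pin tool came one day after lung cancer cell lines were seeded in 1536-well plates, using either one drug or a fixed anchor-drug dose plus five library-drug doses (not always all listed) in √10 steps. After 5 days, nuclei were counted on 4× images. Relative viability is treated-well nuclei count divided by vehicle-well nuclei count, and values are medians of duplicate plates.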

[1] = compound: CC1=CC(=NN1)NC2=CC(=NC(=N2)/C=C/C3=CC=CC=C3)N4CCN(CC4)C + C[C@]1(O)C[C@@H](c2nc(-c3ccc4ccc(-c5ccccc5)nc4c3)c3c(N)nccn32)C1 [Linsitinib] (partner 1 µM)
In short: as §1

[2] = compound: CC1=CC(=NN1)NC2=CC(=NC(=N2)/C=C/C3=CC=CC=C3)N4CCN(CC4)C + Cc1nc(NC(=O)N2CCC[C@H]2C(N)=O)sc1-c1ccnc(C(C)(C)C(F)(F)F)c1 [Alpelisib] (partner 2 µM)
In short: as §1

Obatoclax + Navitoclax = compound: COC1=CC(c2cc3ccccc3[nH]2)=N/C1=C\c1[nH]c(C)cc1C [Obatoclax] + CC1(C)CCC(c2ccc(Cl)cc2)=C(CN2CCN(c3ccc(C(=O)NS(=O)(=O)c4ccc(N[C@H](CCN5CCOCC5)CSc5ccccc5)c(S(=O)(=O)C(F)(F)F)c4)cc3)CC2)C1 [Navitoclax] (partner 0.5 µM)
In short: as §1

| Cell Line | relative viability (Obatoclax + Vorinostat; first compound 0.01 µM) | relative viability (Obatoclax + Vorinostat; first compound 0.03162 µM) | relative viability (Obatoclax + Vorinostat; first compound 0.1 µM) | relative viability (Obatoclax + Vorinostat; first compound 0.3162 µM) | relative viability (Obatoclax + Vorinostat; first compound 1 µM) | relative viability ([1]; first compound 0.08 µM) | relative viability ([1]; first compound 0.253 µM) | relative viability ([1]; first compound 0.8 µM) | relative viability ([1]; first compound 2.53 µM) | relative viability ([1]; first compound 8 µM) | relative viability ([2]; first compound 0.08 µM) | relative viability ([2]; first compound 0.253 µM) | relative viability ([2]; first compound 0.8 µM) | relative viability ([2]; first compound 2.53 µM) | relative viability ([2]; first compound 8 µM) | relative viability (Obatoclax + Navitoclax; first compound 0.01 µM) | relative viability (Obatoclax + Navitoclax; first compound 0.03162 µM) | relative viability (Obatoclax + Navitoclax; first compound 0.1 µM) | relative viability (Obatoclax + Navitoclax; first compound 0.3162 µM) | relative viability (Obatoclax + Navitoclax; first compound 1 µM) |
| --- | --- | --- | --- | --- | --- | --- | --- | --- | --- | --- | --- | --- | --- | --- | --- | --- | --- | --- | --- | --- |
| PC-3 [JPC-3] | 0.835 | 0.555 | 0.767 | 0.527 | 0.439 | 1.01 | 1.02 | 0.918 | 0.95 | 0.814 | 1.08 | 1.15 | 1.04 | 1 | 0.78 | 0.853 | 0.682 | 0.801 | 0.796 | 0.668 |
| HCC-44 | 1.04 | 1.06 | 1.05 | 1.1 | 1.03 | 0.64 | 0.755 | 0.659 | 0.235 | 0.201 | 0.784 | 0.879 | 0.675 | 0.281 | 0.0774 | 0.923 | 0.803 | 0.989 | 0.911 | 1.05 |
| NCI-H2405 | 1.05 | 1 | – | 0.984 | 0.981 | 0.951 | 0.674 | 1.06 | 0.499 | 0.164 | 0.687 | 0.6 | 0.983 | 0.414 | 0.148 | 0.82 | 1.06 | – | 0.862 | 0.857 |
| LXF-289 | 0.714 | 0.725 | 0.798 | 0.775 | 0.601 | 0.932 | 1.01 | 0.914 | 0.447 | 0.36 | 1.07 | 1.06 | 0.919 | 0.199 | 0.0577 | 0.912 | 0.883 | 0.926 | 0.905 | 0.96 |
| A549 | – | – | – | – | – | 0.538 | 0.689 | 0.481 | 0.275 | 0.0279 | 0.685 | 0.684 | 0.398 | 0.0413 | 0.0242 | 1.2 | 1.29 | 1.16 | 0.682 | 0.0677 |
| Calu-6 | – | – | – | – | – | 0.98 | 0.997 | 0.883 | 0.441 | 0.158 | 1.01 | 0.973 | 0.661 | 0.134 | 0.117 | 0.874 | 0.977 | 0.852 | 0.506 | 0.0891 |
| SW 900 | 0.493 | 0.489 | 0.509 | 0.389 | 0.372 | – | – | – | – | – | – | – | – | – | – | – | – | – | – | – |
| ABC-1 | 1.25 | 1.08 | 0.869 | 1.17 | 0.933 | 0.787 | 0.983 | 0.724 | 0.581 | 0.173 | 1.01 | 1.09 | 1.02 | 0.855 | 0.22 | – | – | – | – | – |
| NCI-H358 | 0.661 | 0.73 | 0.595 | 0.183 | 0.141 | 0.733 | 0.736 | 0.331 | 0.14 | 0.11 | 0.934 | 0.821 | 0.539 | 0.142 | 0.153 | – | – | – | – | – |
